Results as given in patent US12473250B2, “Molecular design of new antibiotics and antibiotic adjuvants against MCR strains” (priority 2019, dated 2025).
Entries after “also recorded” stand apart in the source; their conditions may differ.

Key:
[1] = Calcein leakage from large unilamellar vesicles; settings: vesicles of 100 nm, DOPE/DOPG=3/1
From the text: FIG. 20 refers to a graph showing calcein leakage of LC100 and LC101 using large unilamellar vesicles of 100 nm. The lipid composition of the vesicle is DOPE/DOPG=3/1, mimicking the bacterial inner membrane. […] Further increase of LC100 or LC101 leads to decrease in the florescence because of a fluorescence quenching effect.

MCR-1 protein = biological target: T1, MCR-1 protein (Escherichia coli, UniProt A0A0R6L508); test: Fluorescence quenching of MCR-1 protein; format: binding; settings: autofluorescence at 323 nm; increasing LC100 concentration
T1 construct: purchased Bioprocessing technology institute, A*STAR (Singapore, Singapore)
Procedure: However, EtBr is membrane impermeable, which means that it can only enter the bacterial cell and bind to DNA and emit fluorescence only when both the bacterial outer and inner membranes are perturbed. […] It is also possible that LC100 may have other targets. One possible target is the MCR-1 protein. To understand the interaction of LC100 and the MCR-1 protein, the fluorescence of MCR-1 protein in the presence of different concentration of LC100 was measured. MCR-1 protein contains several tryptophan residues, and autofluoresces at 323 nm.

[2] = tested on: ACBA multi-drug resistant strains; test: Synergy of LC100 with colistin against multi-drug resistant strains (Table 5); format: cell-based, Acinetobacter baumannii
Procedure: (§1) The MICs of the individual drugs and LC compound in combinations were determined using the broth microdilution technique as recommended by the CLSI whereby the two anti-microbial agents were added in an equal amount. (e.g.: 50 μL of Colistin: 50 μL of LC compounds). Diluted media containing compounds and antibiotics will be serially diluted 2-fold, and LC compounds and antibiotics alone or in combination will be assayed at fixed synergy concentration. In all cases, the lowest concentration at which no visible growth occurred was be recorded to be the MIC value of individual and combined antibacterial agents. The results were obtained after 24 hours of incubation.

[3] = tested on: 6083655967 [MCR 1+; E.Coli]; test: Synergistic study between LC100 or LC101 with B2088; format: cell-based; settings: for Combination MIC: strain 6083655967, value of each component
Procedure: as §1
Using the combination of LC100 and colistin, the activity of a broad range of strains was further tested (Table 7).

[4] = tested on: Gram positive bacteria (SA and MRSA strains); test: Antimicrobial effect on Gram positive bacteria (Table 8); format: cell-based; parameters: key to antimicrobial effect on Gram positive bacteria: MIC (concentration giving 99% inhibition), concentrations in μg; settings: compound alone
Procedure: MIC experiments of the antimicrobial agents were determined by a modified broth microdilution method in accordance with the Clinical and Laboratory Standards Institute (CLSI) guidelines using 96 well culture plates. In brief, serial dilutions of all plates were prepared at different concentrations (μg). The inoculum suspension was prepared by adding isolated colonies from a 18-20 hours on TSA plate into phosphate buffer (0.31 mM, pH 7.2) or in water for injection (BBraun) and adjusting the suspension to a turbidity equivalent to 0.5 McFarland Standard. Each well contained a final bacterial concentration of approximately 5×10^5 colony forming units (CFU)/mL. The plate was covered and incubated at 35° C. for 24 hours. […] For the microdilution plates, turbidity in wells can be measured at OD600 using TECAN infinite M200Pro. MIC was determined as […] concentration that gives a 99 percent inhibition.
The antimicrobial activity of the inventive combination was also tested against Gram positive bacteria, including the multi-drug resistant strains, such as MRSA. […] This means the combination of LC100/LC101 with colistin has broad antimicrobial spectrum, being active against both Gram positive and Gram negative bacteria.

[5] = tested on: colistin resistant MCR (+) E. Coli strains; test: Synergy study: colistin MIC in the presence of compound; format: cell-based
In short: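 After 24 hours, MIC was read as the lowest concentration without visible growth. Drugs were tested singly and in combination by CLSI broth microdilution, equal-amount colistin:LC compound mixtures serially diluted 2-fold at a fixed synergy concentration.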

[6] = tested on: KLPN multi-drug resistant strains; test: Synergy of LC100 with colistin against multi-drug resistant strains (Table 5); format: cell-based, Klebsiella pneumonia
Procedure: as §1

[7] = tested on: colistin resistant MCR (−) E. Coli strains; test: MIC, broth microdilution, compound alone; format: cell-based
In short: (§2)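 Wells held ~5×10^5 CFU/mL of bacteria prepared to 0.5 McFarland from overnight TSA colonies and exposed to serially diluted agents, following modified CLSI microdilution. After 24 h at 35 °C, growth judged by turbidity (OD600 possible); 99% inhibition sets the MIC.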

[8] = tested on: colistin resistant MCR (−) E. Cloacae strain 7023456439; test: MIC, broth microdilution, compound alone; format: cell-based; settings: strain 7023456439 E. Cloacae
In short: as §2

T1 sequence (A0A0R6L508 whole entry): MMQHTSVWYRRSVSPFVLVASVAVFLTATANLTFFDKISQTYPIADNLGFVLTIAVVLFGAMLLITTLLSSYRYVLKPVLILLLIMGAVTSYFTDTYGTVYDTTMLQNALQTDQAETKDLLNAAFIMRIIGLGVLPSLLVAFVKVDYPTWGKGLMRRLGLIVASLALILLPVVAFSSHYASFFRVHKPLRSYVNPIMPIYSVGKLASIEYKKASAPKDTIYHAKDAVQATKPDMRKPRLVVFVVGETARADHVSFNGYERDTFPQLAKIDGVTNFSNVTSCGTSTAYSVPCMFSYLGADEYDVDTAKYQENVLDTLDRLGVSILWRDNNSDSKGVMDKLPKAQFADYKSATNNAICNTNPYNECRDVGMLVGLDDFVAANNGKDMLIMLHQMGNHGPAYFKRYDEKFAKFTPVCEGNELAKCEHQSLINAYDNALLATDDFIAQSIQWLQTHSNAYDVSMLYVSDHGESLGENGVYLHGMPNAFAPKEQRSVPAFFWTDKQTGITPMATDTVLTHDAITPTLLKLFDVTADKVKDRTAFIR

Compound: CCN(CC)CCCCOc1ccc(/C=C/C(=O)c2ccc(OCCCCN(CC)CC)c(CC=C(C)C)c2O)cc1 [LC100]
- calcein leakage / disruption of vesicles [1]: significant florescence was detected; also recorded: disrupts liposomes
- fluorescence of MCR-1 protein (quenching) (MCR-1 protein): the fluorescence decreases
- Colistin MIC in the presence of LC100 ([2]; strain ACBA 1010, LC 100 2 μg): <0.0975 µg/mL
- Colistin MIC in the presence of LC100 ([2]; strain ACBA 1010, LC 100 5 μg): <0.0975 µg/mL
- Colistin MIC in the presence of LC100 ([2]; strain ACBA 1012, LC 100 2 μg): 0.39 µg/mL
- Colistin MIC in the presence of LC100 ([2]; strain ACBA 1012, LC 100 5 μg): <0.0975 µg/mL
- Colistin MIC in the presence of LC100 ([2]; strain ACBA 43357, LC 100 2 μg): 0.39 µg/mL
- Colistin MIC in the presence of LC100 ([2]; strain ACBA 43357, LC 100 5 μg): <0.0975 µg/mL
- Colistin MIC in the presence of LC100 ([2]; strain ACBA ATCC 19606, LC 100 2 μg): 0.195 µg/mL
- Colistin MIC in the presence of LC100 ([2]; strain ACBA ATCC 19606, LC 100 5 μg): <0.0975 µg/mL
- Combination MIC ([3]; combination B2088 (Ac) + LC 100): 2 µg/mL
- Combination MIC ([3]; combination B2088 + LC 100): 1 µg/mL
- level of synergistic effect with B2088 ([3]; killing E. coli with the mcr-1 mutation): 1 µg/mL
- activity against Gram positive strains ([4]; in words): good activity
- antimicrobial effect on Gram positive bacteria ([4]; strain MRSA ATCC 43300): 3.125
- antimicrobial effect on Gram positive bacteria ([4]; strain MRSA ATCC 700699): 3.125
- antimicrobial effect on Gram positive bacteria ([4]; strain MRSA DM 21455): 3.125
- antimicrobial effect on Gram positive bacteria ([4]; strain SA ATCC 6538): 3.125
- antimicrobial effect on Gram positive bacteria ([4]; strain SA ATCC 29213): 3.125
- antimicrobial effect on Gram positive bacteria ([4]; strain SA DM 4400R): 3.125
- Colistin MIC in the presence of LC100 ([5]; LC100 greater than 5 μg/ml, as low as): 0.0975 µg/mL
- concentration at which the compound shows synergy with colistin ([5]; against mcr-1 bacteria): 2 µg/mL
- synergy with colistin ([5]; against mcr-1 bacteria, in words): excellent synergy
- Colistin MIC in the presence of the compound ([5]; strain 6075066346, MCR(+), compound at 2 μg): 1.56 µg/mL
- Colistin MIC in the presence of the compound ([5]; strain 6075066346, MCR(+), compound at 3 μg): 0.78 µg/mL
- Colistin MIC in the presence of the compound ([5]; strain 6075066346, MCR(+), compound at 5 μg (Table 2a: 5 ug/ml)): 0.195 µg/mL
- Colistin MIC in the presence of the compound ([5]; strain 6075066346, MCR(+), compound at 10 μg (Table 2a: 10 ug/ml)): <0.098 µg/mL
- Colistin MIC in the presence of the compound ([5]; strain 6075066346, MCR(+), compound at 10 μg (Table 2a: 10 ug/ml), listed as LC 100): <0.0975 µg/mL
- Colistin MIC in the presence of the compound ([5]; strain 6083655967, MCR(+), compound at 2 μg): 1.56 µg/mL
- Colistin MIC in the presence of the compound ([5]; strain 6083655967, MCR(+), compound at 3 μg): 0.39 µg/mL
- Colistin MIC in the presence of the compound ([5]; strain 6083655967, MCR(+), compound at 5 μg (Table 2a: 5 ug/ml)): 0.195 µg/mL
- Colistin MIC in the presence of the compound ([5]; strain 6083655967, MCR(+), compound at 10 μg (Table 2a: 10 ug/ml)): <0.098 µg/mL
- Colistin MIC in the presence of the compound ([5]; strain 6083655967, MCR(+), compound at 10 μg (Table 2a: 10 ug/ml), listed as LC 100): <0.0975 µg/mL
- Colistin MIC in the presence of the compound ([5]; strain 6103645107, MCR(+), compound at 2 μg): 1.56 µg/mL
- Colistin MIC in the presence of the compound ([5]; strain 6103645107, MCR(+), compound at 3 μg): 0.78 µg/mL
- Colistin MIC in the presence of the compound ([5]; strain 6103645107, MCR(+), compound at 5 μg (Table 2a: 5 ug/ml)): 0.195 µg/mL
- Colistin MIC in the presence of the compound ([5]; strain 6103645107, MCR(+), compound at 10 μg (Table 2a: 10 ug/ml)): <0.098 µg/mL
- Colistin MIC in the presence of the compound ([5]; strain 6103645107, MCR(+), compound at 10 μg (Table 2a: 10 ug/ml), listed as LC 100): <0.0975 µg/mL
- Colistin MIC in the presence of the compound ([5]; strain 6123520276, MCR(+), compound at 2 μg): 1.56 µg/mL
- Colistin MIC in the presence of the compound ([5]; strain 6123520276, MCR(+), compound at 3 μg): 0.78 µg/mL
- Colistin MIC in the presence of the compound ([5]; strain 6123520276, MCR(+), compound at 5 μg (Table 2a: 5 ug/ml)): 0.195 µg/mL
- Colistin MIC in the presence of the compound ([5]; strain 6123520276, MCR(+), compound at 10 μg (Table 2a: 10 ug/ml)): <0.098 µg/mL
- Colistin MIC in the presence of the compound ([5]; strain 6123520276, MCR(+), compound at 10 μg (Table 2a: 10 ug/ml), listed as LC 100): <0.0975 µg/mL
- Colistin MIC in the presence of the compound ([5]; strain 7013177695, MCR(+), compound at 2 μg): 1.56 µg/mL
- Colistin MIC in the presence of the compound ([5]; strain 7013177695, MCR(+), compound at 3 μg): 0.39 µg/mL
- Colistin MIC in the presence of the compound ([5]; strain 7013177695, MCR(+), compound at 5 μg (Table 2a: 5 ug/ml)): 0.195 µg/mL
- Colistin MIC in the presence of the compound ([5]; strain 7013177695, MCR(+), compound at 10 μg (Table 2a: 10 ug/ml)): <0.098 µg/mL
- Colistin MIC in the presence of the compound ([5]; strain 7013177695, MCR(+), compound at 10 μg (Table 2a: 10 ug/ml), listed as LC 100): <0.0975 µg/mL
- Colistin MIC in the presence of the compound ([5]; strain 7023436560, MCR(+), compound at 2 μg): 1.56 µg/mL
- Colistin MIC in the presence of the compound ([5]; strain 7023436560, MCR(+), compound at 3 μg): 0.39 µg/mL
- Colistin MIC in the presence of the compound ([5]; strain 7023436560, MCR(+), compound at 5 μg (Table 2a: 5 ug/ml)): 0.195 µg/mL
- Colistin MIC in the presence of the compound ([5]; strain 7023436560, MCR(+), compound at 10 μg (Table 2a: 10 ug/ml)): <0.098 µg/mL
- Colistin MIC in the presence of the compound ([5]; strain 7023436560, MCR(+), compound at 10 μg (Table 2a: 10 ug/ml), listed as LC 100): <0.0975 µg/mL
- Colistin MIC in the presence of the compound ([5]; strain 7023444207, MCR(+), compound at 2 μg): 1.56 µg/mL
- Colistin MIC in the presence of the compound ([5]; strain 7023444207, MCR(+), compound at 3 μg): 0.39 µg/mL
- Colistin MIC in the presence of the compound ([5]; strain 7023444207, MCR(+), compound at 5 μg (Table 2a: 5 ug/ml)): 0.195 µg/mL
- Colistin MIC in the presence of the compound ([5]; strain 7023444207, MCR(+), compound at 10 μg (Table 2a: 10 ug/ml)): <0.098 µg/mL
- Colistin MIC in the presence of the compound ([5]; strain 7023444207, MCR(+), compound at 10 μg (Table 2a: 10 ug/ml), listed as LC 100): <0.0975 µg/mL
- Colistin MIC in the presence of LC100 ([6]; strain KLPN 8852, LC 100 2 μg): >25 µg/mL
- Colistin MIC in the presence of LC100 ([6]; strain KLPN 8852, LC 100 5 μg): 25 µg/mL
- Colistin MIC in the presence of LC100 ([6]; strain KLPN 15588, LC 100 2 μg): 0.39 µg/mL
- Colistin MIC in the presence of LC100 ([6]; strain KLPN 15588, LC 100 5 μg): <0.0975 µg/mL
- Colistin MIC in the presence of LC100 ([6]; strain KLPN 24076, LC 100 2 μg): 0.39 µg/mL
- Colistin MIC in the presence of LC100 ([6]; strain KLPN 24076, LC 100 5 μg): <0.0975 µg/mL
- Colistin MIC in the presence of LC100 ([6]; strain KLPN 27025, LC 100 2 μg): 0.195 µg/mL
- Colistin MIC in the presence of LC100 ([6]; strain KLPN 27025, LC 100 5 μg): <0.0975 µg/mL

Compound: Colistin
- MIC ([7]; strain 6083672926, MCR (−)): 12.5 µg/mL
- MIC ([7]; strain 7023446108, MCR (−)): 6.25 µg/mL
- MIC ([7]; strain 7033607097, MCR (−)): 6.25 µg/mL
- MIC [8]: 100 µg/mL
